According to patent US20130224239A1, “ALCOHOLIC EXTRACT OF FUNGI OF GENUS […] AND USE THEREOF” (KING SAUD UNIVERSITY, priority 2011, published 2013):
Converted amounts (≈) assume the structure as drawn.

Experiments:
Assay type in all cases: cell-based
[1] = system: Salmonella typhimuium (RCMB 0104); assay: Antimicrobial screening, disc diffusion; conditions: Salmonella typhimuim; compounds isolated from Cunninghamella elegans
Procedure: (§1) The alcoholic extracts obtained were used for testing their antimicrobial activity. Each extract (0.5 g) was dissolved in 10 ml water. Same concentrations for the successive extracts (using diethyl ether, chloroform, ethyl acetate and n-butanol) were also prepared.
(§2) The representatives of Gram negative bacteria, namely Salmonella typhimuium (RCMB 0104), Escherichia coli (RCMB 0103), Pseudomonas aeruginosa (RCMB 0102) and Gram positive bacteria, namely Bacillus subtilis (RCMB 0107), Staphylococcus aureus (RCMB 0106), Streptococcus pyogenes (RCMB 0109), unicellular fungi, namely Candida albicans (RCMB 5002) and filamentous fungi, namely Aspergillus fumigatus (RCMB 2003) and Penicllium expansum (RCMB 1006) were used as test organisms (RCMB: The Regional Center for Mycology and Biotechnology, Al-azhar University Nasser City, Cairo, Egypt).
(§3) For antimicrobial screening the well known disc diffusion and agar well diffusion methods were used, together with the determination of minimum inhibitory concentration (MIC), see Duguid et al., Microbial Infections, The English Language Book Society, Churchill Livingston, Edingburgh, London, 1978; vol. 1, page 110.
(§4) Disc diffusion method: The agar disc diffusion method is employed for the determination of antimicrobial activities of the extracts of the investigated fungal species. Sterilized paper discs (Whatman No. 1) ([…]) were separately soaked in the extracts and transferred onto the surface of growth media seeded with the test organism. After incubation period, following suitable conditions for the test organism, the diameter of the inhibition zone around the discs was measured in millimeters.
Each fungal species was grown on malt extract media at 28±2° C. for 14 days. The metabolites of the fungal species were screened for antimicrobial activity.

Staphylococcus aureus = assay: Minimum inhibitory concentration, agar well diffusion; conditions: against Staphylococcus aureus
Description: as §3
Agar well diffusion method: On the other hand, the agar well diffusion method was employed for determination of the minimum inhibitory concentration (MIC). The test organisms were separately seeded in the agar medium. The wells (10 mm in diameter) were cut from the agar and […] (different concentrations) was transferred into them. After incubation period, following suitable conditions for the test organism, the diameter of the inhibition zone around the discs was measured in millimeters. The obtained result was the mean of three experiments.
The minimum inhibitory concentration (MIC) of Cunninghamella blakesleeana, C. elegans, C. homothallica and successive extracts and isolated compounds of Cunninghamella elegans against Staphylococcus aureus was determined.
Minimum inhibitory concentration (MIC): The lowest concentration of an antimicrobial agent that will inhibit a visible growth of a microorganism after overnight incubation.

[2] = system: Streptococcus pyogenes (RCMB 0109); assay: Antimicrobial screening, disc diffusion; conditions: compounds isolated from Cunninghamella elegans
Procedure: as §1, §2, §3
as §4, with “millimeters. The obtained result was the mean of three experiments.” for “millimeters.”
(§5) Each fungal species was grown on malt extract media at 28±2° C. for 14 days. The metabolites of the fungal species were screened for antimicrobial activity. The inhibition zones around each disc were measured, in millimeter, and recorded (Tables 1).

[3] = system: Aspergillus fumigatus (RCMB 2003); assay: Antimicrobial screening, disc diffusion; conditions: compounds isolated from Cunninghamella elegans
Procedure: as §1, §2, §3
as §4, with “millimeters. The obtained result was the mean of three experiments.” for “millimeters.”
as §5

[4] = system: Candida albicans (RCMB 5002); assay: Antimicrobial screening, disc diffusion; conditions: compounds isolated from Cunninghamella elegans
Procedure: as §1, §2, §3
as §4, with “millimeters. The obtained result was the mean of three experiments.” for “millimeters.”
as §5

[5] = system: Staphylococcus aureus (RCMB 0106); assay: Antimicrobial screening, disc diffusion; conditions: compounds isolated from Cunninghamella elegans
Procedure: as §1, §2, §3
as §4, with “millimeters. The obtained result was the mean of three experiments.” for “millimeters.”
as §5

[6] = system: Bacillus subtilis (RCMB 0107); assay: Antimicrobial screening, disc diffusion; conditions: compounds isolated from Cunninghamella elegans
Procedure: as §1, §2, §3
as §4, with “millimeters. The obtained result was the mean of three experiments.” for “millimeters.”
as §5

[7] = system: Pseudomonas aeruginosa (RCMB 0102); assay: Antimicrobial screening, disc diffusion; conditions: Pseudomonas aeurginosa; compounds isolated from Cunninghamella elegans
Procedure: as §1, §2, §3
as §4, with “millimeters. The obtained result was the mean of three experiments.” for “millimeters.”
as §5

[8] = system: Penicllium expansum (RCMB 1006); assay: Antimicrobial screening, disc diffusion; conditions: Penicillium expansum; compounds isolated from Cunninghamella elegans
Procedure: as §1, §2, §3
as §4, with “millimeters. The obtained result was the mean of three experiments.” for “millimeters.”
as §5

[9] = system: Escherichia coli (RCMB 0103); assay: Antimicrobial screening, disc diffusion; conditions: compounds isolated from Cunninghamella elegans
Procedure: as §1, §2, §3
as §4, with “millimeters. The obtained result was the mean of three experiments.” for “millimeters.”
as §5

SMILES	Diameter of inhibition zone [1]	Minimum inhibitory concentration (Staphylococcus aureus)	Diameter of inhibition zone [2]	Diameter of inhibition zone [3]	Diameter of inhibition zone [4]	Diameter of inhibition zone [5]	Diameter of inhibition zone [6]	Diameter of inhibition zone [7]	Diameter of inhibition zone [8]	Diameter of inhibition zone [9]	MIC (Staphylococcus aureus; read-out: Minimum inhibitory concentration)
O=c1ccn([C@@H]2O[C@H](CO)[C@@H](O)[C@H]2O)c(=O)[nH]1 [Compound 5, pyrimidine-2,4-dion, 1-ribose]	00.0 mm	150 µg/mL (≈ 614 µM)	00.0 mm	00.0 mm	00.0 mm	11.0 ± 0.1 mm	00.0 mm	00.0 mm	00.0 mm	00.0 mm	
C=C(CC(=O)O)C(=O)OC [Compound 8, 3-(methoxycarbonyl)-but-3-enoic acid]	00.0 mm		00.0 mm	00.0 mm	00.0 mm	07.0 ± 0.5 mm	00.0 mm	00.0 mm	00.0 mm	00.0 mm	210 µg/mL (≈ 1460 µM)
